Measured values from patent publication US20250179045A1, “LPAR1 ANTAGONISTS AND USES THEREOF” (Contineum Therapeutics, Inc., priority 2021, published 2025).
pIC50: −log10 of the molar value.

Each compound was assayed against human LPA1 (Homo sapiens, UniProt Q92633) (assay: In vitro functional assay of lysophosphatidic acid receptor 1 activity (calcium flux)). Conditions: B103 cells stably expressing human LPA1; Fluo-4 NW calcium flux after lysophosphatidic acid (18:1) at EC80; compounds 100 pM to 10 μM; read-out: LPA1 IC50.
Type: cell-based
Experimental: In vitro functional assay of lysophosphatidic acid receptor 1 activity
Primary compound plates were prepared in 100% DMSO (Sigma-Aldrich), secondary compound plates were prepared at 10× concentration in DiVEM (Invitrogen), and tertiary compound plates were prepared at 3x concentration in assay buffer containing HBSS (no Ca^+2/Mg^+2, Invitrogen) and 0.1% BSA (Sigma-Aldrich). Fluo-4 NW calcium assay dye (Invitrogen) was prepared as per manufacturer's recommendations in assay buffer. B103 cells stably expressing human LPA1(J. Chun lab, UCSD) were grown to confluency in DMEM media (Invitrogen) containing 10% FBS (ATCC), […] (Sigma-Aldrich) and […] Geneticin (Sigma-Aldrich), and detached with Accutase (Sigma-Aldrich) prior to assay. The freshly detached cells were resuspended in growth media and plated in black, clear-bottom 96-well plates (Costar) containing compound (i.e., secondary compound plate) at a density of 5×10^4 cells/well. Once plated, cells were left at room temperature for 30 minutes and then transferred to a 37° C., […] incubator for 24 hours. After 24 hours, the growth media was then removed and freshly prepared Fluo-4 NW calcium assay dye was added to cells. Compounds (i.e. tertiary compound plates) were then added back to the dye/cells, returned to the incubator for 30 minutes, and then kept at room temperature for an additional 30 minutes. Finally, lysophosphatidic acid (18:1) at the EC80 concentration was added and calcium flux measured using FlexStation 3 (Molecular Devices). Sigmoidal dose-response curves were generated by measuring […] over 45 sec and calculating the area under the curve. Dose response curves and IC50 values were generated using Prism (GraphPad). Compounds were tested at a final concentration range of 100 pM to 10 μM in 0.10% DMSO.

Sequence of human LPA1 (Q92633 whole entry): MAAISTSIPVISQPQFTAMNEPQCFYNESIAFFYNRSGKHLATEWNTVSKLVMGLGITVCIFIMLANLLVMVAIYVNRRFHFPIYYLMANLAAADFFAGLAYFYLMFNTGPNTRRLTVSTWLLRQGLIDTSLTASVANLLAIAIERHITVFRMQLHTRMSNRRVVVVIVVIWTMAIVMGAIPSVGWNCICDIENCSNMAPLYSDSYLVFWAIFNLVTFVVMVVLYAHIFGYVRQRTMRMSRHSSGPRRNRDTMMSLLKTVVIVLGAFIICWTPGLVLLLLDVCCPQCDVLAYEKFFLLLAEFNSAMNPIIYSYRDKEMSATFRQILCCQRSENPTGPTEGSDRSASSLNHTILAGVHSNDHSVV

| pIC50 | Compound |
| --- | --- |
| 6.00 to 7.00 | Cc1ccc(NC(=O)C2(c3ccccc3C(C)C)CC(N(C)C)C2)c(OC(F)F)n1 (stereo not drawn) [Example 39, N-(2-(difluoromethoxy)-6-methylpyridin-3-yl)-3-(dimethylamino)-1-(2-isopropylphenyl)cyclobutane-1-carboxamide] |
| < 6.00 | COc1cc(OC(F)F)c(NC(=O)C2(c3ccccc3C(C)C)CC(=O)N(C)C2)cn1 (stereo not drawn) [Example 5, N-(4-(difluoromethoxy)-6-methoxypyridin-3-yl)-3-(2-isopropylphenyl)-1-methyl-5-oxopyrrolidine-3-carboxamide] |
| 6.00 to 7.00 | Cc1ccc(NC(=O)C2(c3ccccc3C(C)C)CC(C)(O)C2)c(OC(F)F)n1 (single isomer, unassigned) [Example 51-isomer A, N-(2-(difluoromethoxy)-6-methylpyridin-3-yl)-3-hydroxy-1-(2-isopropylphenyl)-3-methylcyclobutane-1-carboxamide] |
| 6.00 to 7.00 | Cc1cc(OC(F)F)c(NC(=O)C2(c3ccccc3C(C)C)CC(=O)N(C)C2)cn1 (stereo not drawn) [Example 6, N-(4-(difluoromethoxy)-6-methylpyridin-3-yl)-3-(2-isopropylphenyl)-1-methyl-5-oxopyrrolidine-3-carboxamide] |
| 7.00 to 8.00 | Cc1ccc(NC(=O)C2(c3ncccc3C(C)C)CC(CC(=O)O)C2)c(OC(F)F)n1 (stereo not drawn) [Example 48, 2-(3-((2-(difluoromethoxy)-6-methylpyridin-3-y1)carbamoyl)-3-(3-isopropylpyridin-2-yl)cyclobutyl)acetic acid] |
| 6.00 to 7.00 | Cc1ccc(NC(=O)C2(c3ccccc3C(C)C)CC(S(C)(=O)=O)C2)c(OC(F)F)n1 (stereo not drawn) [Example 71, N-(2-(difluoromethoxy)-6-methylpyridin-3-yl)-1-(2-isopropylphenyl)-3-(methylsulfonyl)cyclobutane-1-carboxamide] |
| > 8.00 | C#CC1(O)CCC(C(=O)Nc2ccc(OC)nc2OC(F)F)(c2ccccc2C(C)C)CC1 (stereo not drawn) [Example 82, N-(2-(difluoromethoxy)-6-methoxypyridin-3-yl)-4-ethynyl-4-hydroxy-1-(2-isopropylphenyl)cyclohexane-1-carboxamide] |
| 7.00 to 8.00 | COC[C@H](C)Oc1cc(Cl)ncc1NC(=O)C1(c2ccccc2C(C)C)COC1 [Example 34, (S)-N-(6-chloro-4-((1-methoxypropan-2-yl)oxy)pyridin-3-yl)-3-(2-isopropylphenyl)oxetane-3-carboxamide] |
| 7.00 to 8.00 | Cc1ccc(NC(=O)C2(c3ccccc3C(C)C)CCOCC2)c(OC(F)F)n1 [Example 13, N-(2-(difluoromethoxy)-6-methylpyridin-3-yl)-4-(2-isopropylphenyl)tetrahydro-2H-pyran-4-carboxamide] |
| > 8.00 | COc1ccc(NC(=O)C2(c3ccccc3C(C)C)COC2)c(OC(F)F)n1 [Example 15, N-(2-(difluoromethoxy)-6-methoxypyridin-3-yl)-3-(2-isopropylphenyl)oxetane-3-carboxamide] |
| < 6.00 | COc1nc(NC(=O)C2(c3ccccc3C(C)C)CNC(=O)C2)c(OC(F)F)cc1Cl (stereo not drawn) [Example 12, N-(5-chloro-3-(difluoromethoxy)-6-methoxypyridin-2-yl)-3-(2-isopropylphenyl)-5-oxopyrrolidine-3-carboxamide] |
| 7.00 to 8.00 | CC(C)c1ccccc1C1(C(=O)Nc2ncc(Cl)cc2OC(F)F)COC1 [Example 22, N-(5-chloro-3-(difluoromethoxy)pyridin-2-yl)-3-(2-isopropylphenyl)oxetane-3-carboxamide] |
| 6.00 to 7.00 | Cc1ccc(NC(=O)C2(c3ccccc3C(C)C)CC(N(C)S(C)(=O)=O)C2)c(OC(F)F)n1 (stereo not drawn) [Example 44, N-(2-(difluoromethoxy)-6-methylpyridin-3-yl)-1-(2-isopropylphenyl)-3-(N-methylmethylsulfonamido)cyclobutane-1-carboxamide] |
| 6.00 to 7.00 | COc1ccc(NC(=O)C2(c3ccccc3C(C)C)CCC3(CC2)NC(=O)NC3=O)c(OC(F)F)n1 (mixture of isomers) [Example 86, N-(2-(difluoromethoxy)-6-methoxypyridin-3-yl)-8-(2-isopropylphenyl)-2,4-dioxo-1,3-diazaspiro[4.5]decane-8-carboxamide] |
| 6.00 to 7.00 | CNS(=O)(=O)C1CCC(C(=O)Nc2ccc(OC)nc2OC(F)F)(c2ccccc2C(C)C)CC1 (stereo not drawn) [Example 99, N-(2-(difluoromethoxy)-6-methoxypyridin-3-yl)-1-(2-isopropylphenyl)-4-(N-methylsulfamoyl)cyclohexane-1-carboxamide] |
| 7.00 to 8.00 | Cc1ccc(NC(=O)C2(c3ccccc3C(C)C)CC(C(=O)O)C2)c(OC(F)F)n1 (stereo not drawn) [Example 65, 3-((2-(difluoromethoxy)-6-methylpyridin-3-yl)carbamoyl)-3-(2-isopropylphenyl)cyclobutane-1-carboxylic acid] |
| 6.00 to 7.00 | COc1cc(OC(F)F)c(NC(=O)C2(c3ccccc3C(C)C)COC2)cn1 [Example 25, N-(4-(difluoromethoxy)-6-methoxypyridin-3-yl)-3-(2-isopropylphenyl)oxetane-3-carboxamide] |
| 7.00 to 8.00 | Cc1ccc(NC(=O)C2(c3ccccc3C(C)C)CC(O)(c3ccc(C#N)cn3)C2)c(OC(F)F)n1 (stereo not drawn) [Example 50, 3-(5-cyanopyridin-2-yl)-N-(2-(difluoromethoxy)-6-methylpyridin-3-yl)-3-hydroxy-1-(2-isopropylphenyl)cyclobutane-1-carboxamide] |
| 7.00 to 8.00 | CCC1(O)CC(C(=O)Nc2ccc(C)nc2OC(F)F)(c2ccccc2C(C)C)C1 (stereo not drawn) [Example 52, N-(2-(difluoromethoxy)-6-methylpyridin-3-yl)-3-ethyl-3-hydroxy-1-(2-isopropylphenyl)cyclobutane-1-carboxamide] |
| 6.00 to 7.00 | Cc1ccc(NC(=O)C2(c3ccccc3C(C)C)CC(N3CC(O)C3)C2)c(OC(F)F)n1 (stereo not drawn) [Example 42, N-(2-(difluoromethoxy)-6-methylpyridin-3-yl)-3-(3-hydroxyazetidin-1-yl)-1-(2-isopropylphenyl)cyclobutane-1-carboxamide] |
| 7.00 to 8.00 | COc1ccc(NC(=O)C2(c3ccccc3C(C)C)CC(=O)N(C)C2)c(OC(F)F)n1 (single isomer, unassigned) [Example 1, N-(2-(difluoromethoxy)-6-methoxypyridin-3-yl)-3-(2-isopropylphenyl)-1-methyl-5-oxopyrrolidine-3-carboxamide] |
| 7.00 to 8.00 | COc1ccc(NC(=O)C2(c3ccccc3C(C)C)CCC(C#N)CC2)c(OC(F)F)n1 (mixture of isomers) [Example 95, 4-cyano-N-(2-(difluoromethoxy)-6-methoxypyridin-3-yl)-1-(2-isopropylphenyl)cyclohexane-1-carboxamide] |
| 6.00 to 7.00 | COc1ccc(NC(=O)C2(c3ccccc3C(C)C)CCC(S(C)(=O)=O)CC2)c(OC(F)F)n1 (stereo not drawn) [Example 100, N-(2-(difluoromethoxy)-6-methoxypyridin-3-yl)-1-(2-isopropylphenyl)-4-(methylsulfonyl)cyclohexane-1-carboxamide] |
| 6.00 to 7.00 | CNC1CC(C(=O)Nc2ccc(C)nc2OC(F)F)(c2ccccc2C(C)C)C1 (mixture of isomers) [Example 38, N-(2-(difluoromethoxy)-6-methylpyridin-3-yl)-1-(2-isopropylphenyl)-3-(methylamino)cyclobutane-1-carboxamide] |
| 7.00 to 8.00 | CC(C)c1ccccc1C1(C(=O)Nc2ccc(F)cc2OC(F)F)COC1 [Example 27, N-(2-(difluoromethoxy)-4-fluorophenyl)-3-(2-isopropylphenyl)oxetane-3-carboxamide] |
| < 6.00 | COc1cc(C)ncc1NC(=O)C1(c2ccccc2C(C)C)COC1 [Example 36, 3-(2-isopropylphenyl)-N-(4-methoxy-6-methylpyridin-3-yl)oxetane-3-carboxamide] |
| 6.00 to 7.00 | Cc1ccc(NC(=O)C2(c3ccccc3C(C)C)CC(CC#N)C2)c(OC(F)F)n1 (mixture of isomers) [Example 63, 3-(cyanomethyl)-N-(2-(difluoromethoxy)-6-methylpyridin-3-yl)-1-(2-isopropylphenyl)cyclobutane-1-carboxamide] |
| 7.00 to 8.00 | Cc1ccc(NC(=O)C2(c3ccccc3C(C)C)CNC(=O)C2)c(OC(F)F)c1 (stereo not drawn) [Example 109, N-(2-(difluoromethoxy)-4-methylphenyl)-3-(2-isopropylphenyl)-5-oxopyrrolidine-3-carboxamide] |
| 7.00 to 8.00 | CC(C)c1ccccc1C1(C(=O)Nc2ncc(Cl)cc2OC(F)F)CNC(=O)C1 (stereo not drawn) [Example 10, N-(5-chloro-3-(difluoromethoxy)pyridin-2-yl)-3-(2-isopropylphenyl)-5-oxopyrrolidine-3-carboxamide] |

Same assay, conditions: LPA1 IC50, B103 cells stably expressing human LPA1; Fluo-4 NW calcium flux after lysophosphatidic acid (18:1) at EC80; compounds 100 pM to 10 μM

| Compound | pIC50 |
| --- | --- |
| COc1ccc(NC(=O)C2(c3ccccc3C(C)C)CCNC(=O)C2)c(OC(F)F)n1 (stereo not drawn) [Example 116, N-(2-(difluoromethoxy)-6-methoxypyridin-3-yl)-4-(2-isopropylphenyl)-2-oxopiperidine-4-carboxamide] | 6.00 to 7.00 |
